In US20210282378A1, “Mutant Mouse-Derived Pancreatic Organoid and Method for Evaluating Standardized Drug for Efficacy” (Seoul National University R&DB Foundation, priority 2018, published 2021):

Legend:
[1] = test system: pancreatic organoids derived from BRCA2 gene-deleted mice (Brca2^F11/F11; CreER™); experiment: Drug responsiveness of pancreatic organoids with normal or exon 11-deleted BRCA2, observed with an inverted microscope; assay type: cell-based, mouse; settings: alone or in combination with 200 nM TSA, with vs without BRCA2 exon 11 deletion, FIG. 6
Protocol: With reference to the method of Example 2 above, pancreatic organoids derived from BRCA2 gene-deleted mice (Brca2^F11/F11; CreER™) were prepared. To induce a partial deletion of BRCA2 gene (deletion of exon 11 of BRCA2 gene), 4-hydroxytamoxifen (4-OHT) was added to the organoids in an amount of 400 nM, and the resulting organoids were cultured for 3 weeks or more (see Example 2). For comparison, organoids not treated with 4-OHT (in which BRCA2 gene is normal) were also prepared.
Organoids having normal BRCA2 gene (not treated with 4-OHT) and organoids with a partial deletion of BRCA2 (exon 11 deletion) were seeded in equal amounts into 24-well plates. On the day after seeding, the organoids were treated with a mixture of the anticancer agent histone deacetylase inhibitor (HDACi) and a culture medium (see Example 2).
3 days after treatment (first treatment) with HDACi, the culture medium was replaced with a fresh medium, and treatment (second treatment) with each HDACi was performed again at the concentration shown in Table 3. Here, the primary treatment with HDACi was performed about 24 to 48 hours after seeding of the organoids, and 3 days after that, the second treatment was performed.

[2] = test system: pancreatic organoids from Kras^G12D mutant mice; assay type: cell-based, mouse; settings: FIG. 14A
Protocol: The organoids were treated with 0 μM, 200 μM or 500 μM of the drug, followed by analysis of GFP (see FIG. 14A).

[3] = test system: normal pancreatic organoids; experiment: Effect of Resveratrone on normal organoids; assay type: cell-based, mouse; settings: 0, 200 or 500 μM
Protocol: Pancreatic tissue isolated from the genetically mutated mice described in Examples 1 to 7 above was dissociated. Cell pellets containing ductal cells were collected from the dissociated pancreatic tissue. The collected cell pellets were grown with a biomatrix in a cell incubator at 37° C. under 5% CO2. Thereafter, the produced organoids were grown in an organoid culture medium until 75% or more thereof grew to a diameter of 200 to 500 μm. […] The organoids were treated with a drug diluted in an organoid culture medium. […] As a result of the measurement, it could be confirmed that, when the above-described drug treatment method was used, it was possible to track the drug responsiveness of each organoid, which was a limitation of a conventional drug screening method using organoids, and drug treatment in a uniform size state was possible. […] As the maximum value of the average diameter of the collected organoids increases, the difference in size (average diameter) between the organoids included increases, so that the difference in responsiveness to the same drug between the organoids increases. Thus, in order to obtain a uniform drug responsiveness result, it is important to determine the upper limit of the size (average diameter) of the organoids. […]

[4] = test system: mouse-derived normal organoids; experiment: p53 expression level by Western blot, normal organoids; assay type: cell-based; settings: two treatments 72 hours apart, day 5 after primary treatment; FIG. 15
Protocol: (§1) The mouse-derived organoids described in Examples 1 to 7 or patient-derived organoids were primarily treated with a drug, and after 72 hours, secondarily treated with the drug. As the drug, Resveratrone used in Examples 9 and 10 was used. On day 2 after the secondary drug treatment (day 5 after the primary drug treatment), the cell culture medium was removed, and then the cells were washed with 1 ml of PBS. After removal of PBS, the cells were mechanically dissociated with 500 μl of a recovery solution. The cell solution was agitated at 50 to 70 rpm at 4° C. for 1 hour, transferred into a microtube, and then centrifuged at 1200 rpm for 5 minutes, followed by removal of the supernatant. The remaining pellet was lysed with NETN buffer, and then sonicated using a sonicator for 1 minute with an output of 2 to 3 and centrifuged at 12,000 rpm for 20 to 30 minutes, and the supernatant was collected. The supernatant was quantified to 100 to 120 μg using Bradford assay, and then loaded onto a 10% polyacrylamide gel, followed by SD S-PAGE (Sodium Dodecyl Sulfate-Polyacrylamide gel electrophoresis) gel running. Then, the gel was transferred to a nitrocellulose membrane, and the transferred membrane was blocked with 5% skim milk while stirring at 50 rpm for 1 hour at RT. […]

[5] = test system: mutant organoids (cancer-like); experiment: p53 expression level by Western blot, mutant organoids; assay type: cell-based, mouse; settings: two treatments 72 hours apart, day 5 after primary treatment; FIG. 15
Protocol: as §1

[6] = test system: patient-derived organoids; experiment: p53 expression level by Western blot, patient-derived organoids; assay type: cell-based, human; settings: two treatments 72 hours apart, day 5 after primary treatment; FIG. 15
Protocol: as §1

In the case of `O=C(c1cc(Cc2n[nH]c(=O)c3ccccc23)ccc1F)N1CCN(C(=O)C2CC2)CC1` [Olaparib], the “responsiveness to the tested drugs (state of the organoids)” value ([1]; 10 μM) is reported as “did differ depending on the presence or absence of the BRCA2 gene”.

In the case of `CC(=O)/C=C/c1ccc2cc(O)cc(O)c2c1` [Resveratrone], the “GFP / green fluorescence of dying cells” value ([2]; 200 μM) is reported as “exhibited fluorescence”, the “GFP / cell death” value ([2]; 500 μM) is reported as “cell death occurred and GFP decreased” and the “effect of the drug on normal pancreatic organoids” value [3] is reported as “no effect”. For the same compound, the “expression level of p53” value [4] was “increased”, the “expression level of p53” value [5] was “did not increase” and the “expression level of p53, normal vs cancer tendency” value [6] was “this tendency was also found in the patient-derived organoids”.

With `CC[C@@H]1C(=O)N(C)c2cnc(Nc3ccc(C(=O)NC4CCN(C)CC4)cc3OC)nc2N1C1CCCC1` [BI2536] the “responsiveness to the tested drugs (state of the organoids)” value ([1]; 10 nM) was “did differ depending on the presence or absence of the BRCA2 gene”.
